According to ChEMBL document CHEMBL5046282, “Discovery of Brain-Penetrant Glucosylceramide Synthase Inhibitors with a Novel Pharmacophore” (J Med Chem, 2022):
Values after ≈ are worked out from the molar mass of the structure shown.

What was measured:
CYP2C9 = CYP2C9 (Homo sapiens, UniProt P11712); test: Inhibition of CYP2C9 in human liver microsomes using tolbutamide as substrate at 10 uM in presence of NADPH generating system incubated for 10 mins; type: ADME; conditions: probe tolbutamide
[1] = Intrinsic clearance in mouse liver microsomes at 1 uM in presence of NADPH generating system assessed per mg protein by LC-MS/MS analysis; type: ADME, Microsome; conditions: read-out: CLH
CYP1A2 = target: T1, CYP1A2 (Homo sapiens, UniProt P05177); test: Inhibition of CYP1A2 in human liver microsomes using tacrine as substrate at 10 uM in presence of NADPH generating system incubated for 10 mins; type: ADME; conditions: probe tacrine
T1 sequence (P05177 whole entry): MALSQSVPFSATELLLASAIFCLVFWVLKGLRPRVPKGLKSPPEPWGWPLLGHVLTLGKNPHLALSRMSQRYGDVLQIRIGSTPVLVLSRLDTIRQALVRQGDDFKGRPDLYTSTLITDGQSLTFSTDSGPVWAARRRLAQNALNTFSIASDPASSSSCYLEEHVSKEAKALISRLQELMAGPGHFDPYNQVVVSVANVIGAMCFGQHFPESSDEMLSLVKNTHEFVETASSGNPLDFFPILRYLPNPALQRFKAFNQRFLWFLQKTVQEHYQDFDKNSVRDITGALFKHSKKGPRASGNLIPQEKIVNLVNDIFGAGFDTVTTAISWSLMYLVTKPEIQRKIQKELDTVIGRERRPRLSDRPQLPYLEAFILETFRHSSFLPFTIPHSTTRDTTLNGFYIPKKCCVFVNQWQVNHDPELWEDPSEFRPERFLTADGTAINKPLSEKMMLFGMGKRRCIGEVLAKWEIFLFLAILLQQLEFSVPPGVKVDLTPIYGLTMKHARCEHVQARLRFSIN

[2] = 1-Octanol/aqueous buffer partition coefficient, logD of the compound at pH 7.4 by chromatographic method; type: physicochemical
CYP2C8 = target: T2, CYP2C8 (Homo sapiens, UniProt P10632); test: Inhibition of CYP2C8 in human liver microsomes using paclitaxel as substrate at 10 uM in presence of NADPH generating system incubated for 10 mins; type: ADME; conditions: probe paclitaxel
T2 sequence (P10632 whole entry): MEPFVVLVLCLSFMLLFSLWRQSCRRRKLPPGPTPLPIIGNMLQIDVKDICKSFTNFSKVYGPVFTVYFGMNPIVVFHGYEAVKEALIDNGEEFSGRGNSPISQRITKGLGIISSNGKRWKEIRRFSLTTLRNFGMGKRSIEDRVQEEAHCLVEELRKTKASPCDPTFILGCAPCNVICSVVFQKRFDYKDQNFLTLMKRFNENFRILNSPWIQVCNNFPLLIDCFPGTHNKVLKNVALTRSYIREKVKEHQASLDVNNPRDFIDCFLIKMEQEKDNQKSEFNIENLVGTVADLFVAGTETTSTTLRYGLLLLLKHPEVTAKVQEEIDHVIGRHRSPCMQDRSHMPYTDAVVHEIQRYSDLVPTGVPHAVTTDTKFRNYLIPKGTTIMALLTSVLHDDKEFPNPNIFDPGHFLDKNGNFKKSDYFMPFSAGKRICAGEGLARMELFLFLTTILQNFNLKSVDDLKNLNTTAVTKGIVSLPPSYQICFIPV

[3] = MRT in non-fasted ICR mouse at 0.5 mg/kg, iv by LC-MS/MS analysis; type: ADME, organism-based; conditions: in vivo
[4] = AUC in non-fasted ICR mouse at 5 mg/kg, po by LC-MS/MS analysis; type: ADME, organism-based; parameters: dose 5 mg/kg; conditions: in vivo
[5] = Toxicity in C57BL/6J mouse assessed as change in body weight at 30 to 100 mg/kg, po; type: organism-based; conditions: in vivo, dose 30-100 mg/kg
[6] = target: Ceramide glucosyltransferase (Homo sapiens, UniProt Q16739); test: Inhibition of GCS in GBA mutant human fibroblasts assessed as reduction in glucosylceramide level incubated for 4 days by RapdiFire-MS/MS analysis; type: cell-based; conditions: fibroblast
[7] = Plasma clearance in non-fasted ICR mouse at 0.5 mg/kg, iv by LC-MS/MS analysis; type: ADME, organism-based
[8] = Efflux ratio of apparent permeability from basolateral to apical side over apical to basolateral side in dog MDCK-MDR1 cells at 1 uM measured after 1 hr by LC-MS/MS analysis; type: ADME, cell-based, Canis lupus familiaris
[9] = Kinetic solubility of the compound in JP2 fluid at pH 6.8 by precipitation method; type: physicochemical; conditions: read-out: Kinetic_solubility
[10] = Cardiotoxicity in human iPSC-derived cardiomyocytes assessed as induction of proarrhythmic activity at 30 uM by Fluo-4 dye based fluorescence analysis; type: toxicity; conditions: cardiac muscle cell
[11] = target: Sodium-dependent serotonin transporter (Homo sapiens, UniProt P31645); test: Inhibition of human SERT; type: toxicity
[12] = Unbound drug concentration in brain of non-fasted ICR mouse at 30 mg/kg, po measured after 1 hr by LC-MS/MS analysis; type: ADME, organism-based; conditions: in vivo
Nav1.5 = Nav1.5 (Homo sapiens, UniProt Q14524); test: Inhibition of human Nav1.5 at 30 uM by automated whole cell patch clamp assay; type: toxicity
hERG [13] = target: T3, hERG (Homo sapiens, UniProt Q12809); test: Inhibition of hERG expressed in CHO-K1 cells at 10 uM incubated for 5 mins by whole cell-automated voltage clamp analysis; type: toxicity, cell-based; conditions: CHO-K1 cells expressing hERG
CYP2D6 = CYP2D6 (Homo sapiens, UniProt P10635); test: Inhibition of CYP2D6 in human liver microsomes using dextromethorphan as substrate at 10 uM in presence of NADPH generating system incubated for 10 mins; type: ADME; conditions: probe dextromethorphan
hERG [14] = target: T3, hERG; test: Inhibition of hERG expressed in CHO-K1 cells at 30 uM by automated whole cell patch clamp assay; type: toxicity, cell-based; conditions: CHO-K1 cells expressing hERG
[15] = Toxicity in Sprague-Dawley rat assessed as reduction in body weight at 30 to 100 mg/kg, po administered once daily for 3 days; type: organism-based; conditions: in vivo, 72 h, dose 30-100 mg/kg, time 3 day
[16] = Volume of distribution at steady state in non-fasted ICR mouse at 0.5 mg/kg, iv by LC-MS/MS analysis; type: ADME, organism-based; conditions: in vivo, read-out: Vdss
[17] = Cardiotoxicity in human iPSC-derived cardiomyocytes assessed as minimum effective concentration required for intracellular calcium transients-mediated proarrhythmic activity by Fluo-4 dye based fluorescence analysis; type: toxicity; conditions: cardiac muscle cell
[18] = target: T4, Ceramide glucosyltransferase (Mus musculus, UniProt O88693); test: Inhibition of mouse GCS using C8-ceramide and UDP-glucose as substrate incubated for 1 hr by RapidFire mass spectrometry
T4 sequence (O88693 whole entry): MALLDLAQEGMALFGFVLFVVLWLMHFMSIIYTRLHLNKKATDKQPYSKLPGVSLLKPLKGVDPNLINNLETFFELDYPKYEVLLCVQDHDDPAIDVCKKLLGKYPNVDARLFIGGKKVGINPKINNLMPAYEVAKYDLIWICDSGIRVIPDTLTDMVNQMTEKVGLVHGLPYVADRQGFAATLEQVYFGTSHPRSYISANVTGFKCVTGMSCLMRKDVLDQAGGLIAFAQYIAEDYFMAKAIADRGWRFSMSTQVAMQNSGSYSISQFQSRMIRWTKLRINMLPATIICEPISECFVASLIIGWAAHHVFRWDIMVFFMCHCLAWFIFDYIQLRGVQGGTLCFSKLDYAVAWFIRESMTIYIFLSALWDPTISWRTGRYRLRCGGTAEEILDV

[19] = Cmax in non-fasted ICR mouse at 5 mg/kg, po by LC-MS/MS analysis; type: ADME, organism-based; parameters: route oral, dose 5 mg/kg; conditions: in vivo
[20] = MRT in non-fasted ICR mouse at 5 mg/kg, po by LC-MS/MS analysis; type: ADME, organism-based; conditions: in vivo
[21] = Oral bioavailability in non-fasted ICR mouse at 5 mg/kg by LC-MS/MS analysis; type: ADME, organism-based; conditions: in vivo
CYP3A4 = CYP3A4 (Homo sapiens, UniProt P08684); test: Inhibition of CYP3A4 in human liver microsomes using midazolam as substrate at 10 uM in presence of NADPH generating system incubated for 10 mins; type: ADME; conditions: probe midazolam
Cav1.2 = Cav1.2 (Homo sapiens, UniProt Q13936); test: Inhibition of human Cav1.2 expressed in HEK293 cells at 30 uM by automated electrophysiology QPatch HT assay; type: toxicity, cell-based; conditions: HEK293 cells expressing Cav1.2
[22] = Ratio of unbound drug concentration in brain to plasma of non-fasted ICR mouse at 30 mg/kg, po measured after 1 hr by LC-MS/MS analysis; type: ADME, organism-based; conditions: read-out: K(p,uu,brain)

T3 sequence (Q12809 whole entry): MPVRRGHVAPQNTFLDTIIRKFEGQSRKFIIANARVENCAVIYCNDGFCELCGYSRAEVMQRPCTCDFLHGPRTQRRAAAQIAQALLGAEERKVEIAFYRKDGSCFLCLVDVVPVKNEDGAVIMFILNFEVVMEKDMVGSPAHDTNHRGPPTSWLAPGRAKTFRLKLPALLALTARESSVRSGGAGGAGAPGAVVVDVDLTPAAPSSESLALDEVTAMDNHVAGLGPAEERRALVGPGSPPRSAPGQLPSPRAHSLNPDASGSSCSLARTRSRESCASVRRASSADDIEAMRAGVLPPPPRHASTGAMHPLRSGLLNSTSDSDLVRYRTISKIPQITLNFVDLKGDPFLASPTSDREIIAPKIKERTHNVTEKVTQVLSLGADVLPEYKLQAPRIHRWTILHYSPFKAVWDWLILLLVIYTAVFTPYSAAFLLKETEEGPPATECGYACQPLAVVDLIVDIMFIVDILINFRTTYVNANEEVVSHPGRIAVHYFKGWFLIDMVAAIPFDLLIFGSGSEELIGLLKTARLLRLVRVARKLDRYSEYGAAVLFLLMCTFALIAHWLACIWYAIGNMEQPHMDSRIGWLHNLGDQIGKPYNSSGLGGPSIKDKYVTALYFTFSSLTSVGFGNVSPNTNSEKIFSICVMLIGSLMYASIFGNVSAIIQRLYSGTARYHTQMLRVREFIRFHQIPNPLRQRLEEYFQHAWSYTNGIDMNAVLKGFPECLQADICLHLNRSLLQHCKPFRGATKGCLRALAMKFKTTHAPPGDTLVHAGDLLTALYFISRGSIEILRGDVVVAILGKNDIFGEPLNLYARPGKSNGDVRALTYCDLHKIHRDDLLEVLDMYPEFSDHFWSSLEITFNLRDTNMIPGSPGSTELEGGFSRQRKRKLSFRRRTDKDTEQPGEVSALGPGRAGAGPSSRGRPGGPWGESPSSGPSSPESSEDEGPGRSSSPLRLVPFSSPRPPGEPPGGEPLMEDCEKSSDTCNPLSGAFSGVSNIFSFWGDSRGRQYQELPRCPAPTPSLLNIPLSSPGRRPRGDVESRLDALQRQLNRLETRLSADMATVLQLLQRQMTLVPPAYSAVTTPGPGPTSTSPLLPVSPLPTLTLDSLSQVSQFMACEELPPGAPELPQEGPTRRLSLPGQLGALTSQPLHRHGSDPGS
Chain of CYP3A4 (P08684 whole entry): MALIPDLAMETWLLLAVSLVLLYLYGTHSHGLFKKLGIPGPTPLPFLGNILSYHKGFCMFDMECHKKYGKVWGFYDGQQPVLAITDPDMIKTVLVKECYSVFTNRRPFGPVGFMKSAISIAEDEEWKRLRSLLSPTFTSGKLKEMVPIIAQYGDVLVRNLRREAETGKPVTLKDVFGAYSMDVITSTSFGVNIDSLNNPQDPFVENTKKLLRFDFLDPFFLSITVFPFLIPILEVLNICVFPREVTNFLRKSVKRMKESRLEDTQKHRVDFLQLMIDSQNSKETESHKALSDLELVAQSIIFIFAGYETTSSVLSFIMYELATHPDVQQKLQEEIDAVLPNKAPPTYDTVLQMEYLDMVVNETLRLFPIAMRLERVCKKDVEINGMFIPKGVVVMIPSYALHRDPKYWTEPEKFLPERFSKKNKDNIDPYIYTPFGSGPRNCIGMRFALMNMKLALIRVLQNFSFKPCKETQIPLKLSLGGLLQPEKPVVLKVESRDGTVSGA
Chain of CYP2D6 (P10635 whole entry): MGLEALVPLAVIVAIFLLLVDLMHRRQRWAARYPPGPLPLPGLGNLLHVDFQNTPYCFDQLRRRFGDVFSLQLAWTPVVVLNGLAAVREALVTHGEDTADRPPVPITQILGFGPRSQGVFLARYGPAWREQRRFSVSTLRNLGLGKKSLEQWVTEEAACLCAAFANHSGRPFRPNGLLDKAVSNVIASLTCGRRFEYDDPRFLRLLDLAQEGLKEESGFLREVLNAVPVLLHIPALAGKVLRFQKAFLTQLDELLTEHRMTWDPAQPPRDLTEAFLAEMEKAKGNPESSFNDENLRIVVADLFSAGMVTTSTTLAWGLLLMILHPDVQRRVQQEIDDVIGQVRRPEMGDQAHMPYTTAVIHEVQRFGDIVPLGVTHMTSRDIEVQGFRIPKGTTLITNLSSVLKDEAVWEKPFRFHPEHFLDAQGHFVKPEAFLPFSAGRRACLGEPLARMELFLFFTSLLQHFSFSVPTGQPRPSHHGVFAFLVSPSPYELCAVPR
Chain of Nav1.5 (Q14524 whole entry): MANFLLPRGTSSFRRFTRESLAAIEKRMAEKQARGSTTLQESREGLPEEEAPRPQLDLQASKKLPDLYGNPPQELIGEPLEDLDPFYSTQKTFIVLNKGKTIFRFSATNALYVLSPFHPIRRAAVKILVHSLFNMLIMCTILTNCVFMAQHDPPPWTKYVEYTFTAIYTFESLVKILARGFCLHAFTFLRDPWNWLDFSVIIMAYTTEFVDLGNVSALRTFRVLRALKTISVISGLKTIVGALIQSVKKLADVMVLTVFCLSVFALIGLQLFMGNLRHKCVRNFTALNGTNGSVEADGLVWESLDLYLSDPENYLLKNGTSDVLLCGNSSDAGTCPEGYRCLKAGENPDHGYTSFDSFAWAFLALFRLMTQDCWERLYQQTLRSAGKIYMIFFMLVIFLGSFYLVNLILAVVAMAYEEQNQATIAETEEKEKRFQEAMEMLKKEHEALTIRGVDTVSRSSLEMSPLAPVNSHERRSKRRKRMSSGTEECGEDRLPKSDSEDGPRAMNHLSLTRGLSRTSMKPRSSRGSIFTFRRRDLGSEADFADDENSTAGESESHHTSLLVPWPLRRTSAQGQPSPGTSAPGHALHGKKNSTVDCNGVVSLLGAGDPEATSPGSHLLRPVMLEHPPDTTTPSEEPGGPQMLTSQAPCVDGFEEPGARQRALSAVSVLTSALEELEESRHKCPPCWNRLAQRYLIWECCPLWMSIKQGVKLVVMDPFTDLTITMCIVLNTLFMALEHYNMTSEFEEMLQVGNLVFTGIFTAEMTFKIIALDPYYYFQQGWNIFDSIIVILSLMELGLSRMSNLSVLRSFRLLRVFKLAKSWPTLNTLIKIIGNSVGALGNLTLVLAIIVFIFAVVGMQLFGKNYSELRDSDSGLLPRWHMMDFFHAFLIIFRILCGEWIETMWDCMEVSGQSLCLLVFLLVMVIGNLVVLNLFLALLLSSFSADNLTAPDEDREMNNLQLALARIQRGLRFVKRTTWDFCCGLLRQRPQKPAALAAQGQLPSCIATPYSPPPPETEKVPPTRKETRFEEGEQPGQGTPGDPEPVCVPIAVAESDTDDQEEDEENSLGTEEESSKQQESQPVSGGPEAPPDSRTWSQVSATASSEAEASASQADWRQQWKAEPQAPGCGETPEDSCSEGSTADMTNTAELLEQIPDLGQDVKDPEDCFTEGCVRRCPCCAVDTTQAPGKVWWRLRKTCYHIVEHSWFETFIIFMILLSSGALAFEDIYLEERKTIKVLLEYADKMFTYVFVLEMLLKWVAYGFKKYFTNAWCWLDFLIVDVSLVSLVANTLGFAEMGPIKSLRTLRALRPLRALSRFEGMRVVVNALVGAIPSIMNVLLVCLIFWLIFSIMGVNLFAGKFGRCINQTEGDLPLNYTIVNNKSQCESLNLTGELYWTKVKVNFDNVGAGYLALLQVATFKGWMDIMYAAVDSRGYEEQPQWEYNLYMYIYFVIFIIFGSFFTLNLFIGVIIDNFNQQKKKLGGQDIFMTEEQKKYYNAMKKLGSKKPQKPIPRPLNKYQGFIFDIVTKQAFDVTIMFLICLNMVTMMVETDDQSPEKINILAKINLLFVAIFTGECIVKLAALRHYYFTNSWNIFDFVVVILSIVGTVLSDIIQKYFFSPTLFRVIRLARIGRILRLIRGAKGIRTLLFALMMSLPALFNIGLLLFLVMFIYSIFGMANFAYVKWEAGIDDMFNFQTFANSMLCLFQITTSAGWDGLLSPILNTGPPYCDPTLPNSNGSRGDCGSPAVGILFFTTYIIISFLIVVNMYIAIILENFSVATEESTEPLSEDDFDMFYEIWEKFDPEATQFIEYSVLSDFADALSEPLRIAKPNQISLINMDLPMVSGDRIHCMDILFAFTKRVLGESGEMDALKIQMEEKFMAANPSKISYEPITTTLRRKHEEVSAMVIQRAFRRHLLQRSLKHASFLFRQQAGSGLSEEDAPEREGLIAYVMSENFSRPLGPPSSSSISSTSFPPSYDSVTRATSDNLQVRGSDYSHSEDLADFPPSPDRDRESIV
Chain of Ceramide glucosyltransferase (Homo sapiens, UniProt Q16739) (Q16739 whole entry, looked up, change not shown): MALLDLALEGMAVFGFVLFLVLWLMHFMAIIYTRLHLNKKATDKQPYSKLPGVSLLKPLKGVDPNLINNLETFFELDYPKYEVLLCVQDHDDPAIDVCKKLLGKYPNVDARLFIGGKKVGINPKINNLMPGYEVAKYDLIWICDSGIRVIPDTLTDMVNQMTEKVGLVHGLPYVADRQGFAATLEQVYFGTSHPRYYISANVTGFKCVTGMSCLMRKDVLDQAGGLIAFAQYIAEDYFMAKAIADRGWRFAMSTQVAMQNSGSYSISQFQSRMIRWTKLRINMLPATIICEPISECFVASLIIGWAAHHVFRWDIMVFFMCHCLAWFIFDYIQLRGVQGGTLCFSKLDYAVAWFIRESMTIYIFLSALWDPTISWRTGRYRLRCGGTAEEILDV
Chain of CYP2C9 (P11712 whole entry): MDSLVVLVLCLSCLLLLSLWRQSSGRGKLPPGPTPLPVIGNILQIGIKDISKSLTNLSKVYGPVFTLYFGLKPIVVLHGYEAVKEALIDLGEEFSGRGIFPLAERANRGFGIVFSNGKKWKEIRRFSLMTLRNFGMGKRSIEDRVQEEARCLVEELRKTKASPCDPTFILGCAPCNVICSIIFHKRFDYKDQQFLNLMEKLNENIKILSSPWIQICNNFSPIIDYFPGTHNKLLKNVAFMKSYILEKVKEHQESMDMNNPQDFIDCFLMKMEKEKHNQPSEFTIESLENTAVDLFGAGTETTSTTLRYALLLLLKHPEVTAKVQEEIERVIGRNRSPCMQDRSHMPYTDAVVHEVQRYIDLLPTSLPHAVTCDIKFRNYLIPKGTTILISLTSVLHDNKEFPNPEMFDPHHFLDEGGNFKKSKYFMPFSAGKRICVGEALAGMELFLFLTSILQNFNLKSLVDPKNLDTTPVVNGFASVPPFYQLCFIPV

## CC(C)(O)c1ccc(N2Cc3c(ccnc3-c3ccc(F)cc3OCC(F)(F)F)C2=O)cc1
CYP2C9
  inhibition at 10 min, 10 µM: 37.9%
[1]
  microsomal CLint at 1 µM: 6 µL/min/mg
CYP1A2
  inhibition at 10 min, 10 µM: 5.8%
[2]
  chromatographic logD: 2.48
CYP2C8
  inhibition at 10 min, 10 µM: 22.4%
[3]
  MRT: 3.44 h
[4]
  AUC: 10700 ng·h/mL
[5]
  Activity: Non-Toxic
[6]
  EC50: 7.6 nM
[7]
  clearance: 5.23 mL/min/kg
[8]
  efflux ratio at 1 h, 1 µM: 9.6
[9]
  solubility kinetic: 5.2 µg/mL (≈ 11.3 µM)
[10]
  Activity: Non-Toxic
[11]
  IC50: 310 nM
[12]
  Drug uptake(free): 0.24 µM
Nav1.5
  inhibition at 30 µM: 7.1%
hERG [13]
  inhibition at 5 min, 10 µM: 13.8%
CYP2D6
  inhibition at 10 min, 10 µM: 10.9%
hERG [14]
  inhibition at 30 µM: 42%
[15]
  Activity: Toxic
[16]
  Vd: 1.08 L/kg
[17]
  MEC: > 30 µM
[18]
  IC50: 51 nM
[19]
  Cmax: 1180 ng/mL
[20]
  MRT: 7.14 h
[21]
  bioavailability: 67%
CYP3A4
  inhibition at 10 min, 10 µM: 15.5%
Cav1.2
  inhibition at 30 µM: 2.4%
[22]
  Kp uu at 1 h: 0.11
